Blank lines part the entries; values can stand above or below the molecule they belong to.
Experiment: solvent given as SMILES

emission maximum (in C1CCCCC1): 413 nm
Structure (SMILES): CCCC1(CCC)c2cc(-c3ccc(C(C)(C)C)cc3)ccc2-c2ccc(-c3ccc4c(c3)C(CCC)(CCC)c3cc(-c5ccc6c(c5)C(CCC)(CCC)c5cc(-c7ccc8c(c7)C(CCC)(CCC)c7cc(-c9ccc(C(C)(C)C)cc9)ccc7-8)ccc5-6)ccc3-4)cc21

emission maximum (in C1CCOC1): 472 nm
Structure (SMILES): Cc1cc(C)c(-c2cc3c(s2)-c2sc(-c4c(C)cc(C)cc4C)cc2P(c2ccccc2)(c2ccccc2)=[O+][B-]3(c2c(C)cc(C)cc2C)c2c(C)cc(C)cc2C)c(C)c1

emission maximum (in CC#N): 492 nm
emission maximum (in CCCCCC): 467 nm
emission maximum (in CO): 525 nm
emission maximum (in CS(C)=O): 504 nm
emission maximum (in ClC(Cl)Cl): 476 nm
Structure (SMILES): C/C(=N\Nc1ccc(C#N)cc1)c1cccc(/C(C)=N/Nc2ccc(C#N)cc2)c1

emission maximum (in ClC(Cl)Cl): 438 nm
Structure (SMILES): C[Si](C)(C)C#C[Si](c1c2ccccc2cc2ccccc12)(c1c2ccccc2cc2ccccc12)c1c2ccccc2cc2ccccc12

emission maximum (in ClCCl): 417 nm
Structure (SMILES): CC(C)(C)c1ccc2c(c1)c1cc(C(C)(C)C)ccc1n2-c1ccc(-c2cccs2)s1

emission maximum (in CCO): 437.06 nm
Structure (SMILES): Cc1cc2cc3ccccc3cc2cn1

emission maximum (in O): 542 nm
Structure (SMILES): CC[n+]1nc2ccc(N(C)C)cc2c2cc(C)ccc21

emission maximum (in C1CCOC1): 394 nm
Structure (SMILES): C(=C1c2ccccc2CCc2ccccc21)c1ccc(-c2ccc(C=C3c4ccccc4CCc4ccccc43)cc2)cc1

emission maximum (in CC#N): 462 nm
emission maximum (in ClCCl): 434 nm
Structure (SMILES): Cc1cc(-c2ccccc2)cc(C)[o+]1

emission maximum (in C1COCCO1): 478 nm
emission maximum (in CC#N): 477 nm
emission maximum (in CCCCOCCCC): 476 nm
emission maximum (in CCOC(C)=O): 475 nm
Structure (SMILES): Clc1nc(Nc2ccccc2)nc(Nc2ccc3c4cccc5cccc(c6cccc2c63)c54)n1

emission maximum (in CO): 379 nm
Structure (SMILES): COc1cccc(-c2nc(-c3ccccc3)c(-c3ccccc3)[nH]2)c1

emission maximum (in CCCCCC): 471 nm
Structure (SMILES): CCc1c(C(=O)OC)c(C(=O)OC)c2ccc(-c3ccccc3)nn12

emission maximum (in CC#N): 483 nm
Structure (SMILES): COc1cc2cc(/C=C/c3ccc(/C=C(\C#N)C(=O)O)cc3)c(=O)oc2cc1OC

emission maximum (in ClCCl): 555 nm
emission maximum (in c1ccccc1): 512 nm
Structure (SMILES): CCCCN(CCCC)c1ccc(C#Cc2cc(C#Cc3ccc(N(CCCC)CCCC)cc3)c(C#Cc3c(F)c(F)c(F)c(F)c3F)cc2C#Cc2c(F)c(F)c(F)c(F)c2F)cc1

emission maximum (in ClC(Cl)Cl): 589 nm
Structure (SMILES): COC(=O)c1ccc(C2=C3C(C)=CC(C)=[N+]3[B-](F)(F)n3c(/C=C/c4c[nH]cn4)cc(C)c32)cc1

emission maximum (in O): 357 nm
Structure (SMILES): [NH3+]c1ccc2ccc(O)cc2c1

emission maximum (in ClCCl): 461 nm
Structure (SMILES): CCN(CC)c1ccc2c(c1)oc(=O)c1c(C)nc3c(c(-c4ccccc4)nn3-c3ccccc3)c12

emission maximum (in O): 493.5 nm
Structure (SMILES): Nc1cc([NH3+])cc(-c2nc3ccccc3s2)c1

emission maximum (in C1CCOC1): 395 nm
Structure (SMILES): F[Si-](F)(c1ccccc1)(c1c2ccccc2cc2ccccc12)c1c2ccccc2cc2ccccc12

emission maximum (in ClCCl): 490 nm
Structure (SMILES): O=P1(c2ccccc2)c2cccc3c4c5ccccc5c5ccccc5c4c4ccc1n4c23 (stereo unspecified)

emission maximum (in ClC(Cl)Cl): 446 nm
Structure (SMILES): CC(C)(C)c1ccc2oc3nc4oc5ccc(-n6c7ccccc7c7cc(-n8c9ccccc9c9ccccc98)ccc76)cc5c4cc3c2c1

emission maximum (in ClC(Cl)Cl): 442 nm
Structure (SMILES): Cc1ccc(C2CC(=O)Oc3c2c2nc4ccc(C)cc4nc2c2ccccc32)cc1 (stereo unspecified)

emission maximum (in C1CCCCC1): 411 nm
emission maximum (in CC#N): 412 nm
Structure (SMILES): C[Si](C)(C)[Si](C)(C)c1ccc2cc3ccccc3cc2c1

emission maximum (in C1CCCCC1): 400 nm
Structure (SMILES): CCCC1(CCC)c2cc(-c3ccc4c(c3)C(CCC)(CCC)c3cc(C(C)(C)CC)ccc3-4)ccc2-c2ccc(-c3ccc4c(c3)C(CCC)(CCC)c3cc(C(C)(C)CC)ccc3-4)cc21

emission maximum (in CC#N): 480 nm
emission maximum (in CO): 500 nm
emission maximum (in ClCCl): 475 nm
Structure (SMILES): Cc1ccc(O)c(-c2[nH]c(=O)n3c2-c2ccccc2C3=O)c1

emission maximum (in ClC(Cl)Cl): 446 nm
Structure (SMILES): CC(C)(C)c1ccc2oc3nc4oc5ccc(-n6c7ccccc7c7ccccc76)cc5c4cc3c2c1

emission maximum (in ClC(Cl)Cl): 434 nm
Structure (SMILES): O=C1CC(c2ccc(Cl)cc2)c2c(c3ccccc3c3nc4ccccc4nc23)O1 (stereo unspecified)

emission maximum (in C1CCCCC1): 441 nm
Structure (SMILES): CN(C)c1ccc(/C=C/C=C/c2ccc(B(O)O)cc2)cc1

emission maximum (in CC#N): 450 nm
emission maximum (in CCCCCC): 383 nm
Structure (SMILES): Cc1cccc(C)c1Nc1ccc(/C=C/c2cccnc2)cc1

emission maximum (in ClC(Cl)Cl): 440 nm
Structure (SMILES): c1ccc(-n2c(-c3ccc(-c4ccc5c(c4)C4(c6ccccc6-5)c5ccccc5-c5ccc(-c6ccc(-c7nc8ccccc8n7-c7ccccc7)cc6)c6cccc4c56)cc3)nc3ccccc32)cc1 (stereo unspecified)

Further lines, the molecule ahead of its results:

Structure (SMILES): O=S(=O)(c1ccc(N2c3ccccc3Oc3ccccc32)cc1)c1ccc(N2c3ccccc3Oc3ccccc32)cc1
emission maximum (in C1COCCO1): 524 nm
emission maximum (in CC(C)=O): 577 nm
emission maximum (in Cc1ccccc1): 507 nm
emission maximum (in ClC(Cl)Cl): 539 nm
emission maximum (in c1cc(-n2c3ccccc3c3ccccc32)cc(-n2c3ccccc3c3ccccc32)c1): 505 nm

Structure (SMILES): CN(C)c1ccc(C2=Cc3c4ccccc4c4ccccc4[n+]3[B-](F)(F)O2)cc1
emission maximum (in C1CCOC1): 539 nm
emission maximum (in C1COCCO1): 518 nm
emission maximum (in CC1CCCCC1): 485 nm
emission maximum (in CC#N): 569 nm
emission maximum (in CCOC(C)=O): 536 nm
emission maximum (in CCOCC): 513 nm
emission maximum (in CN(C)C=O): 571 nm
emission maximum (in CO): 559 nm
emission maximum (in COC(C)=O): 559 nm
emission maximum (in ClC(Cl)Cl): 521 nm

Structure (SMILES): CCCCC(CC)CN1C(=O)c2cc(Oc3ccc(C(C)(C)C)cc3)c3c4c(Oc5ccc(OC)cc5)cc5c6c(cc(Oc7ccc(OC)cc7)c(c7c(Oc8ccc(C(C)(C)C)cc8)cc(c2c37)C1=O)c64)C(=O)N(c1c(C(C)C)cccc1C(C)C)C5=O (stereo unspecified)
emission maximum (in Cc1ccccc1): 608 nm

Structure (SMILES): CCOC(=O)c1cc(C(=O)OCC)c2cc(N(CC)CC)ccc2n1
emission maximum (in CCO): 561 nm

Structure (SMILES): c1cc2ccc3cc4cccc5ccc6cc(c1)c2c3c6c54
emission maximum (in C1CCCCC1): 436 nm
emission maximum (in CC#N): 436 nm
emission maximum (in CO): 436 nm
emission maximum (in Cc1ccccc1): 436 nm
emission maximum (in ClCCl): 437 nm

Structure (SMILES): CN(C)c1ccc(-c2ccc(-c3ccc(N(C)C)cc3)c3nc(-c4ccccc4)c(-c4ccccc4)nc23)cc1
emission maximum (in C1CCOC1): 601 nm
emission maximum (in CC#N): 646 nm
emission maximum (in CCCCCC): 538 nm
emission maximum (in CN(C)C=O): 648 nm
emission maximum (in Cc1ccccc1): 577 nm
emission maximum (in ClC(Cl)Cl): 597 nm

Structure (SMILES): CCCCCCCCCCCCC(CCCCCCCCCC)Cn1c2cc(/C=C/c3nc4ccccc4s3)c3cccc4c5cccc6c(/C=C/c7nc8ccccc8s7)cc1c(c65)c2c34 (stereo unspecified)
emission maximum (in C1CCCCC1): 570 nm
emission maximum (in CC#N): 581 nm
emission maximum (in Cc1ccccc1): 582 nm
emission maximum (in ClCCl): 585 nm

Structure (SMILES): CN(C)/C=N\c1ccc2c3c(cccc13)C(=O)c1ccccc1-2
emission maximum (in C1CCOC1): 586 nm
emission maximum (in CCCCCC): 528 nm
emission maximum (in CCO): 634 nm
emission maximum (in CCOC(C)=O): 586 nm
emission maximum (in CN(C)C=O): 624 nm
emission maximum (in CO): 638 nm
emission maximum (in Cc1ccccc1): 551 nm
emission maximum (in ClC(Cl)(Cl)Cl): 540 nm
emission maximum (in ClC(Cl)Cl): 575 nm
emission maximum (in ClCCl): 593 nm
emission maximum (in c1ccccc1): 550 nm

Structure (SMILES): CC(C)(C)c1ccc(-c2nc3c4ccc(-c5cc6ccccc6c6ccccc56)cc4c4cc(-c5cc6ccccc6c6ccccc56)ccc4c3n2-c2ccc(C(C)(C)C)cc2)cc1
emission maximum (in C1CCOC1): 388 nm
emission maximum (in C1COCCO1): 386 nm
emission maximum (in CC#N): 405 nm
emission maximum (in CCCCCC): 382 nm
emission maximum (in CCCCOCCCC): 384 nm
emission maximum (in CCN(CC)CC): 384 nm
emission maximum (in CCOC(C)=O): 388 nm
emission maximum (in CCOCC): 384 nm
emission maximum (in CN(C)C=O): 404 nm
emission maximum (in Cc1ccccc1): 385 nm
emission maximum (in ClC=C(Cl)Cl): 388 nm
emission maximum (in ClCCl): 404 nm

Structure (SMILES): COc1cc(Br)cc2cc(-c3cc4cc(Br)cc(OC)c4oc3=O)oc12
emission maximum (in CC#N): 381 nm
emission maximum (in CCOC(C)=O): 434 nm
emission maximum (in CS(C)=O): 387 nm
emission maximum (in Cc1ccccc1): 430 nm
emission maximum (in O): 497 nm

Structure (SMILES): O=C1CC(=O)Nc2cc(Br)ccc2N1
emission maximum (in CS(C)=O): 350 nm

Structure (SMILES): COc1cn2cc(-c3ccc(C#N)cc3)[n-][n+]2c1
emission maximum (in ClCCl): 505 nm

Structure (SMILES): O=Cc1ccc(-c2ccc(C3=CCCCC3)s2)s1
emission maximum (in C1CCOC1): 467 nm
emission maximum (in CC#N): 485 nm
emission maximum (in CCCCCC): 444 nm
emission maximum (in CCO): 498 nm
emission maximum (in OCCOCCO): 508 nm
emission maximum (in c1ccncc1): 483 nm

Structure (SMILES): Nc1ccc2c(c1)Cc1ccccc1-2
emission maximum (in C1CCCCC1): 347 nm
emission maximum (in C1COCCO1): 363 nm
emission maximum (in CC#N): 363 nm
emission maximum (in CC(C)O): 369 nm
emission maximum (in CCCCCC): 344 nm
emission maximum (in CCCCCCC): 344 nm
emission maximum (in CCO): 368 nm
emission maximum (in CCOC(C)=O): 360 nm
emission maximum (in CCOCC): 349 nm
emission maximum (in CO): 367 nm
emission maximum (in ClCCl): 353 nm
emission maximum (in O): 377 nm

Structure (SMILES): CC1(C)c2ccccc2N(c2ccc(-c3cnc(C#N)nc3)cc2)c2ccccc21
emission maximum (in Cc1ccccc1): 524 nm
emission maximum (in N#Cc1ccc2c(c1)c1ccccc1n2-c1cccc(-n2c3ccccc3c3ccccc32)c1): 526 nm

Structure (SMILES): CC(=O)c1c2c(c(C(C)=O)c3c1OC(CC(=O)O)O3)OCO2
emission maximum (in CC#N): 553 nm

Structure (SMILES): Cc1cccc2c1nc1c(=O)n(C)c(=O)nc-1n2C
emission maximum (in CC#N): 493 nm

Structure (SMILES): Cc1ccc(C2=C3C=CC([Te]c4ccccc4)=[N+]3[B-](F)(F)n3c([Te]c4ccccc4)ccc32)cc1
emission maximum (in C1CCOC1): 659 nm

Structure (SMILES): O=C(O)c1cc(O)c(O)c(O)c1
emission maximum (in O): 341 nm

Structure (SMILES): CCOC(=O)c1cc(C(=O)OCC)c2cc(NC)ccc2n1
emission maximum (in CCO): 539 nm

Structure (SMILES): Cc1ccc(C2=[N+]3C(=Cc4ccc(C)n4[B-]3(F)F)c3ccccc32)[nH]1
emission maximum (in C1CCOC1): 621 nm
emission maximum (in CC#N): 620 nm
emission maximum (in CCCCCC): 613 nm
emission maximum (in CO): 616 nm
emission maximum (in Cc1ccccc1): 623 nm
emission maximum (in ClCCl): 624 nm

Structure (SMILES): CC1=N/C(=C\c2cc(C#N)cc(N(C)C)c2)C(=O)N1C
emission maximum (in C1CCOC1): 544 nm
emission maximum (in CC#N): 595 nm
emission maximum (in CCCCCC): 475 nm

Structure (SMILES): CCC1(CC)c2ccccc2-c2ccc(C#Cc3cc(C#Cc4ccc5c(c4)C(CC)(CC)c4ccccc4-5)c4ccc5c(C#Cc6ccc7c(c6)C(CC)(CC)c6ccccc6-7)cc(C#Cc6ccc7c(c6)C(CC)(CC)c6ccccc6-7)c6ccc3c4c65)cc21
emission maximum (in Cc1ccccc1): 549 nm

Structure (SMILES): C(=C\c1nc2c(c(N3CCOCC3)n1)CCCC2)/c1ccccc1
emission maximum (in ClCCl): 333 nm
